Measurements: ChEMBL document CHEMBL1811762, “Gusanlungionosides A-D, potential tyrosinase inhibitors from Arcangelisia gusanlung” (J Nat Prod, 2011)
The source made the active and inactive calls. The calls are words filed in the database; no cut-off is given here.

Columns and labels:
B16-F10 [1] = assay: Cytotoxicity against mouse B16F10 cells up to 200 ug/mL; type: cell-based
Tyrosinase = molecular target: T1, Tyrosinase (Agaricus bisporus, UniProt O42713)
T1 sequence (O42713 whole entry): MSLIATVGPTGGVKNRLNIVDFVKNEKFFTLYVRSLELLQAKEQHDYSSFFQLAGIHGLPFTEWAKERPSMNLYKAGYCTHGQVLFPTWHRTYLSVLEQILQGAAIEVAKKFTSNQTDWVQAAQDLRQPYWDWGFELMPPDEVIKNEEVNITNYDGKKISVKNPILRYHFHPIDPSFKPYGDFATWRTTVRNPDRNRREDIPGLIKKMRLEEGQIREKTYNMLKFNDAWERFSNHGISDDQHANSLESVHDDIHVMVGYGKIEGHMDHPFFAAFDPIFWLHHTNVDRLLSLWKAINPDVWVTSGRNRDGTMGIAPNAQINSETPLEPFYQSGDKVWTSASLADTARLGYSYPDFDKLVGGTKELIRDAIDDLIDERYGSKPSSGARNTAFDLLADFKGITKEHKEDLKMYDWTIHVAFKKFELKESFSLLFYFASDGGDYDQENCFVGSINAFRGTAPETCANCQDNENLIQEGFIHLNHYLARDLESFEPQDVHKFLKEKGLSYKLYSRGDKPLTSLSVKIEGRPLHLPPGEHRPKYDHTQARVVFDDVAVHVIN
Description: Inhibition of mushroom tyrosinase using L-DOPA after 10 mins by ELISA reader

B16-F10 [2] = assay: Antimelanogenic activity in alpha-MSH-stimulated mouse B16F10 cells pretreated for 30 mins before alpha-MSH challenge measured after 48 hrs by ELISA reader; type: functional, cell-based
B16-F10 [3] = assay: Decrease in tyrosinase mRNA expression in alpha-MSH-stimulated mouse B16F10 cells after 48 hrs by RT-PCR analysis; type: functional, cell-based

| Structure (SMILES) | Activity (B16-F10 [1]) | IC50 (Tyrosinase) [mM] | Activity (B16-F10 [2]) | Activity (B16-F10 [3]) |
| --- | --- | --- | --- | --- |
| COc1cc([C@H]2c3c(cc(OC)c(O)c3OC)C[C@@H](CO)[C@H]2CO[C@@H]2O[C@H](CO)[C@@H](O)[C@H](O)[C@H]2O)cc(OC)c1O | Non-toxic | > 1 | Active | – |
| COc1cc([C@@H]2c3c(cc(OC)c(O)c3OC)C[C@H](CO)[C@@H]2CO[C@@H]2O[C@H](CO)[C@@H](O)[C@H](O)[C@H]2O)cc(OC)c1O | Non-toxic | > 1 | Active | – |
| COc1cc([C@@H]2c3c(cc(OC)c(O)c3OC)C[C@@H](CO)[C@H]2CO[C@@H]2O[C@H](CO)[C@@H](O)[C@H](O)[C@H]2O)cc(OC)c1O | Non-toxic | > 1 | Active | – |
| COc1cc([C@H]2c3c(cc(OC)c(O)c3OC)C[C@H](CO)[C@@H]2CO[C@@H]2O[C@H](CO)[C@@H](O)[C@H](O)[C@H]2O)cc(OC)c1O | Non-toxic | > 1 | Active | – |
| COc1cc(/C=C/C(=O)NCCc2ccc(O)c(OC)c2)ccc1O | Non-toxic | > 1 | Active | – |
| COc1cc2c(cc1OC)C(=O)N(C)CC2 | Non-toxic | > 1 | Active | – |
| CC1=CC(=O)CC(C)(C)[C@@H]1/C=C/[C@@H](C)O[C@@H]1O[C@H](CO)[C@@H](O)[C@H](O)[C@H]1O[C@@H]1O[C@@H](C)[C@H](O)[C@@H](O)[C@H]1O [GUSANLUNGIONOSIDE A] | Non-toxic | 0.15 | Active | Active |
| CC1=CC(=O)CC(C)(C)[C@H]1/C=C/[C@@H](C)O[C@@H]1O[C@H](CO)[C@@H](O)[C@H](O)[C@H]1O[C@@H]1O[C@@H](C)[C@H](O)[C@@H](O)[C@H]1O [GUSANLUNGIONOSIDE B] | Non-toxic | 0.16 | Active | Active |
| CC1=CC(=O)CC(C)(C)[C@@H]1CC[C@@H](C)O[C@@H]1O[C@H](CO)[C@@H](O)[C@H](O)[C@H]1O[C@@H]1O[C@@H](C)[C@H](O)[C@@H](O)[C@H]1O [GUSANLUNGIONOSIDE C] | Non-toxic | 0.2 | Active | Active |
| CC1=CC(=O)CC(C)(C)[C@H]1CC[C@@H](C)O[C@@H]1O[C@H](CO)[C@@H](O)[C@H](O)[C@H]1O[C@@H]1O[C@@H](C)[C@H](O)[C@@H](O)[C@H]1O [GUSANLUNGIONOSIDE D] | Non-toxic | 0.19 | Active | Active |
| O=C(/C=C/c1ccc(O)cc1)NCCc1ccc(O)cc1 [N-P-COUMAROYL TYRAMINE] | Non-toxic | > 1 | Active | – |
| OCc1ccc(O)cc1 [PARAHYDROXYBENZYL ALCOHOL] | Non-toxic | > 1 | Active | – |
| COc1cc([C@H]2OC[C@H]3[C@@H]2CO[C@@H]3c2cc(OC)c(O)c(OC)c2)cc(OC)c1O [SYRINGARESINOL] | Non-toxic | > 1 | Active | – |
| COc1cc2c(cc1O)C(=O)N(C)CC2 [THALIFOLINE] | Non-toxic | > 1 | Active | – |
